Literature values in patent US5629294A, “Compositions and methods for preventing adhesion formation” (University of Southern California, priority 1994, dated 1997).

Columns and labels:
[1] = test system: platelet aggregation in response to ADP and collagen
[2] = test system: platelet accumulation associated with the administration of a collagen substrate and ADP; conditions: baboon model, RGDV given at 0.35, 0.68 or 1.31 μmol/min

In the case of RGDV, the “concentration necessary to effectively abolish platelet aggregation” value [1] is listed as 100 µM and the platelet accumulation [2] is listed as “dose-dependent reduction in platelet accumulation”.
